Columns and labels:
p300 = biological target: T1, p300 (Homo sapiens, UniProt Q09472); test: P300 degradation, HiBit technology in A549 P300 HiBit cells (2 h); format: cell-based; conditions: 2 hrs post treatment; for Dmax: A549, A549 P300 HiBit cells; for DC50: A549 P300 HiBit cells
T1 construct: host or cells: A549 P300 HiBit cells
Summary of the method: (§1)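 A549 HiBiT knock-in cells seeded overnight at 37 °C, 5% CO2 in F-12K with 10% heat-inactivated FBS, then given serial dilutions of compound from 10 mM DMSO stocks. Lytic HiBiT detection reagent added for 10 min at room temperature; luminescence read. Potency and Dmax reported.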

CBP = biological target: T2, CBP (Homo sapiens, UniProt Q92793); test: CBP degradation, HiBit technology in A549 CBP HiBit cells (24 h); format: cell-based; conditions: 24 hrs post treatment
T2 construct: host or cells: A549 CBP HiBit cells
T2 sequence (Q92793 whole entry): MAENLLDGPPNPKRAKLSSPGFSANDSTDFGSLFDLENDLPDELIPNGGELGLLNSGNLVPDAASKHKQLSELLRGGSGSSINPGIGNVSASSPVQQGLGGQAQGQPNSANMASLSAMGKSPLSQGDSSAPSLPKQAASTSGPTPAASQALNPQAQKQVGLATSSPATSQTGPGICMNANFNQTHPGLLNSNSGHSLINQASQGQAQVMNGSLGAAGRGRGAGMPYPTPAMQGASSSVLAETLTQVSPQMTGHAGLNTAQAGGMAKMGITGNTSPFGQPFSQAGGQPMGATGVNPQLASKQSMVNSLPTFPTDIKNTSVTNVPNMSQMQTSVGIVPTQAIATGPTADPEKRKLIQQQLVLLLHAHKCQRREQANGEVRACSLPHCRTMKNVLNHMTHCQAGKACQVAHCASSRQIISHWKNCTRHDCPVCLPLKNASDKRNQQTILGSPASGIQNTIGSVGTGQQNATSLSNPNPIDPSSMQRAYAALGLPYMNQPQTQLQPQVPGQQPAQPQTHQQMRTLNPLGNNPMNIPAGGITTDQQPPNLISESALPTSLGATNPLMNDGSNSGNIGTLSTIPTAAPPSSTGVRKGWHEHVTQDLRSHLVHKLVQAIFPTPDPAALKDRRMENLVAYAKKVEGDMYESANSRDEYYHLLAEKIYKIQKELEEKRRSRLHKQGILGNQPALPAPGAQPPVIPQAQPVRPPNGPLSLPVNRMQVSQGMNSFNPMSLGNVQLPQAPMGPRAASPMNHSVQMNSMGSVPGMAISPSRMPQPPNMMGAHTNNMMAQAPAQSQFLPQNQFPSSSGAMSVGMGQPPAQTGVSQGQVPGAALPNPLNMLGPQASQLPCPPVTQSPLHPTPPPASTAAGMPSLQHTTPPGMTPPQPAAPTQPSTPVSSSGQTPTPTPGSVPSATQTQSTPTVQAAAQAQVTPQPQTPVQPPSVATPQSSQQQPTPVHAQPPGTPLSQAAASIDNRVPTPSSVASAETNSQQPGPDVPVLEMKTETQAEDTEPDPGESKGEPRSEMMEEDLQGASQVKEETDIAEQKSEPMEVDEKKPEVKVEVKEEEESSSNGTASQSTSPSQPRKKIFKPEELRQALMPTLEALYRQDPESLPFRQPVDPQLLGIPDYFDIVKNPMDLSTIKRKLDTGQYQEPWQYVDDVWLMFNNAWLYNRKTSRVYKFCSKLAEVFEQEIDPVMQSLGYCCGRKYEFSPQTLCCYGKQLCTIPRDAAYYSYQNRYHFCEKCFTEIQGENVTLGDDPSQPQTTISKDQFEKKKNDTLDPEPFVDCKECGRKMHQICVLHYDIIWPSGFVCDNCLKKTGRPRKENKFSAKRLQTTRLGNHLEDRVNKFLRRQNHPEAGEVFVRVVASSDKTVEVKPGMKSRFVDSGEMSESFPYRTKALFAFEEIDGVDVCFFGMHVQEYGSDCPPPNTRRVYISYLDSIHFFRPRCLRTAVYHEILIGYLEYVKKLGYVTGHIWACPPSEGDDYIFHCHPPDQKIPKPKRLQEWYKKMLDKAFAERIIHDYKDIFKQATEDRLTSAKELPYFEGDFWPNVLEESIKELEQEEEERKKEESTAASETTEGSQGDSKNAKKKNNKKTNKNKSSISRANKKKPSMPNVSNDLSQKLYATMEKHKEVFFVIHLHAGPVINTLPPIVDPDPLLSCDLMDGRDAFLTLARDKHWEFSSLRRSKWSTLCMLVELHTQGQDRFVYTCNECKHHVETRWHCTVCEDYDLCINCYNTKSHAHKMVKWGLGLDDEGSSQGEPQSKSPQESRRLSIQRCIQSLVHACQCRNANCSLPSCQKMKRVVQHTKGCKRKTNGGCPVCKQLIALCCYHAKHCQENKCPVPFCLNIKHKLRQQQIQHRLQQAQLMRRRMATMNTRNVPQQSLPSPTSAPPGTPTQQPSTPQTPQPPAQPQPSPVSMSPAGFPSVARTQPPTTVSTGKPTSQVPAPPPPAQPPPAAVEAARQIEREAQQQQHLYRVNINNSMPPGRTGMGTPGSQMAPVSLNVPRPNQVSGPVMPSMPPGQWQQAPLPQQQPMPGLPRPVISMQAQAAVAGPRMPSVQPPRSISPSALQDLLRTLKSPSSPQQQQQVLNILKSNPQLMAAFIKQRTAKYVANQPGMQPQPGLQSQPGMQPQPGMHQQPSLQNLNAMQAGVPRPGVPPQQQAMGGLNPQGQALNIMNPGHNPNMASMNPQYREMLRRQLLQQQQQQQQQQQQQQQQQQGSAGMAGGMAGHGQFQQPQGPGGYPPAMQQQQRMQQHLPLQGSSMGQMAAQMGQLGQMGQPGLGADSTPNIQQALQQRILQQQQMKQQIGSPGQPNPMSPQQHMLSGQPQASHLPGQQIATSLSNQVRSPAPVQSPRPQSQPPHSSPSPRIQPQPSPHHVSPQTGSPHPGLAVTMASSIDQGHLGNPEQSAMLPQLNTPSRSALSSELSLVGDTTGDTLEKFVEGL
Summary of the method: as §1

T1 sequence (Q09472 whole entry): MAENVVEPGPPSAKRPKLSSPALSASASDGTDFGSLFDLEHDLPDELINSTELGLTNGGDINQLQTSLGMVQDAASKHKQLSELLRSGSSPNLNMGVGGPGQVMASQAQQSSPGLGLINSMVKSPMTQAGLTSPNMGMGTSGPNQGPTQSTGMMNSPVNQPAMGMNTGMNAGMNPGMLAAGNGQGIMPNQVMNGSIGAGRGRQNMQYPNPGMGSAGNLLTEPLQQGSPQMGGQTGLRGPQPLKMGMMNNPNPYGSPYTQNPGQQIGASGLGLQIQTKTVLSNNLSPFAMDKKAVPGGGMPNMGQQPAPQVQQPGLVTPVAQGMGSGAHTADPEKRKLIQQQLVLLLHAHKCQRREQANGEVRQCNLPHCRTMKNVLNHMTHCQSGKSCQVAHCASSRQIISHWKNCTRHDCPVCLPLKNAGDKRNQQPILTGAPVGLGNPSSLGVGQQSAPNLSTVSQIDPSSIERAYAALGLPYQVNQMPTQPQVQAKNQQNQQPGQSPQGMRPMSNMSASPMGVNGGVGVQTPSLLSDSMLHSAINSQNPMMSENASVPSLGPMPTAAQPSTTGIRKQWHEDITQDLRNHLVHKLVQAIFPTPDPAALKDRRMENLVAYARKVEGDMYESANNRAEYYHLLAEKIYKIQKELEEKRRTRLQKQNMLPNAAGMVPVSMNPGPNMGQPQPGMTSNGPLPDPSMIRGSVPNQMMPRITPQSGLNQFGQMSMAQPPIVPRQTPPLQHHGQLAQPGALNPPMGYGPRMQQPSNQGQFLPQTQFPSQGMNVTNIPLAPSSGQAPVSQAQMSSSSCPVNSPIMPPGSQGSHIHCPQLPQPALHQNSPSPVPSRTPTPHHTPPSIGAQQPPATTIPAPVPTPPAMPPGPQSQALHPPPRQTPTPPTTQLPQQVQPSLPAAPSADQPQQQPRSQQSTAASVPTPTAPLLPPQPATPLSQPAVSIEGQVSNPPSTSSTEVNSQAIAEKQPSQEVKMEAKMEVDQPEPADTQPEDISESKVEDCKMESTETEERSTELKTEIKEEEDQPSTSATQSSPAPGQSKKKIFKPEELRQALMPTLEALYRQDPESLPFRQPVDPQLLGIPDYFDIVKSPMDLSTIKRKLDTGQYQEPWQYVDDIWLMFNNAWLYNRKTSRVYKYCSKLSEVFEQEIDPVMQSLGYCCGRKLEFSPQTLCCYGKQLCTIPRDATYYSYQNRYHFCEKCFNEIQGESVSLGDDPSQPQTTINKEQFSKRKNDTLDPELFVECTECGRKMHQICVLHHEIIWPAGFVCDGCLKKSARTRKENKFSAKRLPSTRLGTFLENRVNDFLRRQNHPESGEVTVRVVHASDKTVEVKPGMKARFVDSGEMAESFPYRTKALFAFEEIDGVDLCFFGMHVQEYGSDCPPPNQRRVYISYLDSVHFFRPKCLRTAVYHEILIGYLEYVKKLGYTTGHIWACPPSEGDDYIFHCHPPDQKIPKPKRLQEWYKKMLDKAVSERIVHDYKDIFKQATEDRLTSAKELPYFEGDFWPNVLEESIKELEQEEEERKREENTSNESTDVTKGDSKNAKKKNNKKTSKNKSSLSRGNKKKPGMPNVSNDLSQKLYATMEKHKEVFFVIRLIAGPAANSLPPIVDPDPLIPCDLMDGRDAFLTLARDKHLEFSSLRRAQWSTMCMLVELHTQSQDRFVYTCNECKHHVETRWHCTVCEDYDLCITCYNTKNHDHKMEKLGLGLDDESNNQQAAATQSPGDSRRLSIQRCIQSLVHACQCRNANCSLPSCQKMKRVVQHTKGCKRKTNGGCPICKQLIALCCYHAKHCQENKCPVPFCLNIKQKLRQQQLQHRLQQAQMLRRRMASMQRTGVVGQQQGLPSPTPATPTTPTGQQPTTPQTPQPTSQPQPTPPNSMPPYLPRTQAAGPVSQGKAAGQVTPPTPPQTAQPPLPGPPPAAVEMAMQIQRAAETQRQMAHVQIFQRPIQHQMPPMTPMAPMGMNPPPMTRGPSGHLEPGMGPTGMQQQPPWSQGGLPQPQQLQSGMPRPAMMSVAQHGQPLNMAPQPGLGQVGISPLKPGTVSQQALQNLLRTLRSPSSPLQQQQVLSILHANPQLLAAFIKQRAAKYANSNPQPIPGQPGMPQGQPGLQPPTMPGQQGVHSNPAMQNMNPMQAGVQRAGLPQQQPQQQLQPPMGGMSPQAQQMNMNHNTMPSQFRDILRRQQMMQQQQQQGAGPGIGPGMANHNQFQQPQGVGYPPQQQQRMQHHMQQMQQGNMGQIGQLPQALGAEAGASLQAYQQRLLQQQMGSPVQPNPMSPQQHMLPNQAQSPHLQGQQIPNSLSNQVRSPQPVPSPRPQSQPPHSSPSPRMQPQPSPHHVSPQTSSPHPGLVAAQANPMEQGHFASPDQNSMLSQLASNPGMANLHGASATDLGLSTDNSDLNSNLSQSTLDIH

| SMILES | Dmax (p300) | DC50 (p300) | DC50 (CBP) | Dmax (CBP) |
| --- | --- | --- | --- | --- |
| Cn1c(=O)n(C)c2c(N3C4COCC3C4)nc(-c3cccc4cc(-c5ccc(C(=O)NCC#Cc6ccc7occ(C8CCC(=O)NC8=O)c7c6)nc5)ncc34)cc21 (centres unmarked) [Example A99, 5-(8-(4-(3-oxa-6-azabicyclo[3.1.1]heptan-6-yl)-1,3-dimethyl-2-oxo-2,3-dihydro-1H-imidazo[4,5-c]pyridin-6-yl)isoquinolin-3-yl)-N-(3-(3-(2,6-dioxo-piperidin-3-yl)benzofuran-5-yl)prop-2-yn-1-yl)picolinamide] | > 80% | < 1 nM | > 1000 nM | < 20% |
| CCn1c(=O)n(C)c2c(N3CCOCC3)nc(-c3cccc4cc(-c5ccc(C(=O)NCC#Cc6ccc7occ(C8CCC(=O)NC8=O)c7c6)nc5)ncc34)cc21 (centres unmarked) [Example A108, N-(3-(3-(2,6-dioxo-piperidin-3-yl)benzofuran-5-yl)prop-2-yn-1-yl)-5-(8-(1-ethyl-3-methyl-4-morpholino-2-oxo-2,3-dihydro-1H-imidazo[4,5-c]pyridin-6-yl)isoquinolin-3-yl)picolinamide] | > 80% | 1 to 9.9 nM | > 1000 nM | < 20% |
| Cc1cc(-c2cc3c(cc2F)N(c2ccc4c(c2)n(C)c(=O)n4C)CCO3)cnc1C(=O)NCC#Cc1ccc2occ(C3CCC(=O)NC3=O)c2c1 (centres unmarked) [Example A111, 5-(4-(1,3-dimethyl-2-oxo-2,3-dihydro-1H-benzo[d]imidazol-5-yl)-6-fluoro-3,4-dihydro-2H-benzo[b] [1,4]oxazin-7-yl)-N-(3-(3-(2,6-dioxo-piperidin-3-yl)benzofuran-5-yl)prop-2-yn-1-yl)-3-methylpicolinamide] | > 80% | 10 to 99 nM | > 1000 nM | < 20% |
| Cn1c(=O)n(C)c2c(N3CC(O)C3)nc(-c3cccc4cc(-c5ccc(C(=O)NCC#Cc6ccc7occ(C8CCC(=O)NC8=O)c7c6)nc5)ncc34)cc21 (centres unmarked) [Example A115, N-(3-(3-(2,6-dioxo-piperidin-3-yl)benzofuran-5-yl)prop-2-yn-1-yl)-5-(8-(4-(3-hydroxyazetidin-1-yl)-1,3-dimethyl-2-oxo-2,3-dihydro-1H-imidazo[4,5-c]pyridin-6-yl)isoquinolin-3-yl)picolinamide] | > 80% | < 1 nM | > 1000 nM | < 20% |
| Cn1c(=O)n(C)c2cc(-c3cccc4cc(-c5ccc(C(=O)NCC#Cc6ccc7occ(C8CCC(=O)NC8=O)c7c6)nc5)ncc34)ccc21 (centres unmarked) [Example A119, 5-(8-(1,3-dimethyl-2-oxo-2,3-dihydro-1H-benzo[d]imidazol-5-yl)isoquinolin-3-yl)-N-(3-(3-(2,6-dioxo-piperidin-3-yl)benzofuran-5-yl)prop-2-yn-1-yl)picolinamide] | > 80% | 1 to 9.9 nM | > 1000 nM | < 20% |
| Cn1c(=O)n(C)c2c(N3CCC(O)CC3)nc(-c3cccc4cc(-c5ccc(C(=O)NCC#Cc6ccc7occ(C8CCC(=O)NC8=O)c7c6)nc5)ncc34)cc21 (centres unmarked) [Example A124, N-(3-(3-(2,6-dioxo-piperidin-3-yl)benzofuran-5-yl)prop-2-yn-1-yl)-5-(8-(4-(4-hydroxypiperidin-1-yl)-1,3-dimethyl-2-oxo-2,3-dihydro-1H-imidazo[4,5-c]pyridin-6-yl)isoquinolin-3-yl)picolinamide] | > 80% | < 1 nM | > 1000 nM | < 20% |
| Cn1c(=O)n(C)c2c(N3CC4(COC4)C3)nc(-c3cccc4cc(-c5ccc(C(=O)NCC#Cc6ccc7occ(C8CCC(=O)NC8=O)c7c6)nc5)ncc34)cc21 (centres unmarked) [Example A136, 5-(8-(1,3-dimethyl-2-oxo-4-(2-oxa-6-azaspiro[3.3]heptan-6-yl)-2,3-dihydro-1H-imidazo[4,5-c]pyridin-6-yl)isoquinolin-3-yl)-N-(3-(3-(2,6-dioxopiperidin-3-yl)benzofuran-5-yl)prop-2-yn-1-yl)picolinamide] | > 80% | 1 to 9.9 nM | > 1000 nM | < 20% |
| Cn1c(=O)n(C)c2c(N3CCOCC3)nc(-c3cccc4cc(-c5ccc(C(=O)NCC#Cc6ccc7occ(C8CCC(=O)NC8=O)c7c6)nc5)ncc34)cc21 (centres unmarked) [Example A138, 5-(8-(1,3-dimethyl-4-morpholino-2-oxo-2,3-dihydro-1H-imidazo[4,5-c]pyridin-6-yl)isoquinolin-3-yl)-N-(3-(3-(2,6-dioxopiperidin-3-yl)benzofuran-5-yl)prop-2-yn-1-yl)picolinamide] | > 80% | < 1 nM | > 1000 nM | < 20% |

Second part, the compound after the results:

| Dmax (p300) | DC50 (p300) | DC50 (CBP) | Dmax (CBP) | SMILES |
| --- | --- | --- | --- | --- |
| > 80% | 1 to 9.9 nM | 10 to 99 nM | 40 to 59% | CC(C)c1cc(-c2cn(C)c(=O)c3cc(-c4ccc(C(=O)NCC#Cc5ccc6occ(C7CCC(=O)NC7=O)c6c5)nc4)ncc23)cc2c1n(C)c(=O)n2C (centres unmarked) [Example A97, N-(3-(3-(2,6-dioxo-piperidin-3-yl)benzofuran-5-yl)prop-2-yn-1-yl)-5-(8-(7-isopropyl-1,3-dimethyl-2-oxo-2,3-dihydro-1H-benzo [d]imidazol-5-yl)-6-methyl-5-oxo-5,6-dihydro-2,6-naphthyridin-3-yl) picolinamide] |
| > 80% | 1 to 9.9 nM | 10 to 99 nM | 20 to 39% | CC(C)c1cc(N2CCCc3cc(-c4ccc(C(=O)NCC#Cc5ccc6occ(C7CCC(=O)NC7=O)c6c5)nc4)ncc32)cc2c1n(C)c(=O)n2C (centres unmarked) [Example A100, N-(3-(3-(2,6-dioxo-piperidin-3-yl)benzofuran-5-yl)prop-2-yn-1-yl)-5-(1-(7-isopropyl-1,3-dimethyl-2-oxo-2,3-dihydro-1H-benzo [d]imidazol-5-yl)-1,2,3,4-tetrahydro-1,7-naphthyridin-6-yl)picolinamide] |
| > 80% | < 1 nM | > 1000 nM | < 20% | CN1CCN(c2nc(-c3cccc4cc(-c5ccc(C(=O)NCC#Cc6ccc7occ(C8CCC(=O)NC8=O)c7c6)nc5)ncc34)cc3c2n(C)c(=O)n3C)CC1 (centres unmarked) [Example A102, 5-(8-(1,3-dimethyl-4-(4-methylpiperazin-1-yl)-2-oxo-2,3-dihydro-1H-imidazo[4,5-c]pyridin-6-yl)iso-quinolin-3-yl)-N-(3-(3-(2,6-dioxopiperidin-3-yl)benzofuran-5-yl)prop-2-yn-1-yl) picolinamide] |
| 60 to 79% | 10 to 99 nM | > 1000 nM | < 20% | CC(C)c1cc(N2CCOc3cc(-c4ccc(C(=O)NCC#Cc5ccc6occ(C7CCC(=O)NC7=O)c6c5)nc4)ccc32)cc2c1n(C)c(=O)n2C (centres unmarked) [Example A121, N-(3-(3-(2,6-dioxo-piperidin-3-yl)benzofuran-5-yl)prop-2-yn-1-yl)-5-(4-(7-isopropyl-1,3-dimethyl-2-oxo-2,3-dihydro-1H-benzo [d]imidazol-5-yl)-3,4-dihydro-2H-benzo [b][1,4]oxazin-7-yl)picolinamide] |
| > 80% | < 1 nM | > 1000 nM | < 20% | CN1CCN(c2ccc3c(c2)n(C)c(=O)n3C)c2cnc(-c3ccc(C(=O)NCC#Cc4ccc5occ(C6CCC(=O)NC6=O)c5c4)nc3)nc21 (centres unmarked) [Example A122, 5-(5-(1,3-dimethyl-2-oxo-2,3-dihydro-1H-benzo[d]imidazol-5-yl)-8-methyl-5,6,7,8-tetrahydropteridin-2-yl)-N-(3-(3-(2,6-dioxopiperidin-3-yl)benzofuran-5-yl)prop-2-yn-1-yl)picolinamide] |
| > 80% | < 1 nM | > 1000 nM | < 20% | Cn1c(=O)n(C)c2c(N3CCOCC3)cc(N3CCCc4nc(-c5ccc(C(=O)NCC#Cc6ccc7occ(C8CCC(=O)NC8=O)c7c6)nc5)ncc43)cc21 (centres unmarked) [Example A127, 5-(5-(1,3-dimethyl-7-morpholino-2-oxo-2,3-dihydro-1H-benzo [d]imidazol-5-yl)-5,6,7,8-tetrahydro-pyrido[3,2-d]pyrimidin-2-yl)-N-(3-(3-(2,6-dioxopiperidin-3-yl)benzofuran-5-yl)prop-2-yn-1-yl)picolinamide] |
| > 80% | 1 to 9.9 nM | > 1000 nM | < 20% | Cn1c(=O)n(C)c2cc(N3CCCc4nc(-c5ccc(C(=O)NCC#Cc6ccc7occ(C8CCC(=O)NC8=O)c7c6)nc5)ncc43)ccc21 (centres unmarked) [Example A132, 5-(5-(1,3-dimethyl-2-oxo-2,3-dihydro-1H-benzo[d]imidazol-5-yl)-5,6,7,8-tetrahydropyrido[3,2-d]pyrimidin-2-yl)-N-(3-(3-(2,6-dioxo-piperidin-3-yl)benzofuran-5-yl)prop-2-yn-1-yl)picolinamide] |
| > 80% | 1 to 9.9 nM | 100 to 999 nM | < 20% | CC(C)c1cc(N2CCCc3nc(-c4ccc(C(=O)NCC#Cc5ccc6occ(C7CCC(=O)NC7=O)c6c5)nc4)ncc32)cc2c1n(C)c(=O)n2C (centres unmarked) [Example A133, N-(3-(3-(2,6-dioxo-piperidin-3-yl)benzofuran-5-yl)prop-2-yn-1-yl)-5-(5-(7-isopropyl-1,3-dimethyl-2-oxo-2,3-dihydro-1H-benzo [d]imidazol-5-yl)-5,6,7,8-tetrahydro-pyrido[3,2-d]pyrimidin-2-yl)picolinamide] |
| > 80% | < 1 nM | > 1000 nM | < 20% | CN1CCN(c2ccc3c(c2)n(C)c(=O)n3C)c2cnc(-c3ccc(C(=O)NCC#Cc4ccc5occ(C6CCC(=O)NC6=O)c5c4)nc3)cc21 (centres unmarked) [Example A139, 5-(4-(1,3-dimethyl-2-oxo-2,3-dihydro-1H-benzo[d]imidazol-5-yl)-1-methyl-1,2,3,4-tetrahydropyrido[3,4-b]pyrazin-7-yl)-N-(3-(3-(2,6-dioxo-piperidin-3-yl)benzofuran-5-yl)prop-2-yn-1-yl)picolinamide] |
